Here are results for two compounds from patent US20030120046A1, “Radioisotope-labeled complexes of glucose derivatives and kits for the preparation thereof” (priority 2000, published 2003).

Like-named read-outs stand apart in the source and are kept apart here.

One data set has as its system VX-2 tumor cells. As to conditions: for Normal region counts / Tumor counts: 1.5 mCi i.v. The protocol: Further, ^99mTc-labeled radiopharmaceuticals were tested for their stability in a physiological saline and the human plasma with the lapse of time (see Example 4). […] The radiopharmaceuticals of the present invention were tested for biodistribution and the uptake level in rabbits transplanted with VX-2 tumor cells and then, compared with ^99mTc-MIBI currently used for imaging tumor in nuclear medicine (see Example 5). More specifically, ^99mTc-labeled glucose derivatives were injected to rabbits transplanted with tumor cells to obtain image using gamma camera. Then, the organs were removed to measure biodistribution and the uptake level of radiopharmaceuticals by calculating % ID (injected dose)/g, indicative of the uptake level of the injected radiopharmaceuticals per weight of tissues.
VX-2 tumor cells were ground in 2 ml of a physiological saline and then, transplanted via intramuscular injection to the right thigh muscle of three rabbits (New Zealand White species) weighing 2.5 to 3 kg using a syringe. Then, the rabbits were bred for 3 weeks to grow tumor to have a diameter of 2 to 3 cm. […] After injection, the rabbits were laid down under gamma camera and the gamma camera was controlled to cover the whole body and images were obtained for 15 minutes at 1 and 3 hours after injection, respectively.
The image of ^99mTc-MIBI was obtained at 10 minutes after injection. […] It is conventional that the standardized imaging time cannot be applied for radiopharmaceuticals since their physical, chemical and physiological properties all are different. Thus, the optimal imaging time may be set depending upon the employed radiopharmaceutical.
After obtaining image of the regions of interest, the uptake level of radioactivity was calculated from counts (unit of radioactivity) obtained by a particular program equipped with a gamma camera.

The next data set deals with tumor. Particulars: background art, in words; cited from earlier work.
Data set [1] can be described thus: Stability test of radiopharmaceuticals in a physiological saline (purity by TLC). Format: physicochemical. Particulars: room temperature, mean of 3 experiments. Here is the method: (§1) The stability of radiopharmaceuticals was expressed as the purity of radiopharmaceutical at a given time, and measured after 0, 2, 4 and 6 hrs in a physiological saline and the human plasma, respectively. […] After well stirring the ingredients in each vial, the stability was measured at given times at room temperature.
(§2) The stability was measured as follows. 5 μl of each radiopharmaceutical was deposited in the lower part of TLC and was developed using methyl ethyl ketone (or acetone) and 0.9% physiological saline, respectively. Upon completion of development, each TLC was equally divided into 2 parts and the radioactivity of each part was measured using gamma counter. The stability was calculated by measurement of the purity from the obtained radioactivity. […] The purity of radiopharmaceuticals is calculated as follows.
(§3) 100%−[(radioactivity in the upper part of TLC developed with acetone÷radioactivity in the whole TLC developed with acetone)+(radioactivity in the lower part of TLC developed with 0.9% physiological saline÷radioactivity in the whole TLC developed with 0.9% physiological saline)]×100%

Data set [2] in a line: Stability test of radiopharmaceuticals in the human plasma (purity by TLC). Format: in vitro ADME. Particulars: room temperature, mean of 3 experiments. Here is the method:
as §1, §2, §3

Where [3] appears, read: anterior image, 10 minutes after injection (footnote).
[4] abbreviates: posterior image, 10 minutes after injection (footnote).

For `[99Tc].[C-]#[N+]CC(C)(C)OC.[C-]#[N+]CC(C)(C)OC.[C-]#[N+]CC(C)(C)OC.[C-]#[N+]CC(C)(C)OC.[C-]#[N+]CC(C)(C)OC.[C-]#[N+]CC(C)(C)OC` [^99mTc-MIBI, ^99mTc-MIBI (methoxy isobutyl isonitrile)], in the data set on VX-2 tumor cells (setting [3]), the Tumor/Normal ratio turned out to be 1.7, the Normal region counts was 5829 counts and the Tumor counts stood at 9931 counts. In addition, the “Tumor uptake/normal region uptake ratio” value with VX-2 tumor cells (anterior image, 10 minutes after injection (footnote), Mean ± S.D. from 3 experiments) is 2.22 ± 0.87. Besides, the wash-out in vivo entry in the data set on VX-2 tumor cells (image cannot be practically obtained at 30 minutes or more after injection, in words) is listed as “rapidly washed out”. Further, in the data set with VX-2 tumor cells (setting [4]), the Tumor/Normal ratio stood at 2.0, the Normal region counts is listed as 6566 counts and the Tumor counts is recorded as 13047 counts. In the data set with tumor, the “uptake rate in the abdomen” value is on record as “high”, the “uptake rate in tumor” value is reported as “unsatisfactory” and the “wash-out rate in vivo” value is on record as “high”.

Regarding ^99mTc-glucosamine, the “Purity of radiopharmaceuticals at given times” value came to 99.5% in data set [1] (0 h); 98.9% in data set [1] (2 h); 98.0% in data set [1] (4 h); 97.6% in data set [1] (6 h); 99.5% in data set [2] (0 h); 95.4% in data set [2] (2 h). Besides, the “Purity of radiopharmaceuticals at given times” value was 95.0% in data set [2] (4 h) and 92.4% in data set [2] (6 h).
